From US11311543B2, “Compositions and methods for inhibiting PTPN22” (YALE UNIVERSITY, priority 2016, dated 2022)

What was measured:
LYN = experiment: Phosphorylation kinetics of LYN in RAMOS cells after BCR triggering (immunoblot); assay type: cell-based, human; conditions: LTV-1 5 μg/mL
Description: FIG. 40A depicts the phosphorylation of SHIP1, Lyn and ERK1/2 in total cell lysates of Ramos B cells treated or not with the PTPN22 inhibitor LTV-1 (5 μg/mL) for the indicated times. The cells were subjected to immunoblot analysis of P-LYN P-SHIP1, P-ERK1/2, and β-ACTIN. FIG. 40B depicts flow cytometry analysis of calcium flux of Ramos B cells treated or not with the PTPN22 inhibitor LTV-1 (5 μg/mL) for the indicated times followed by stimulation with anti-IgM F(ab′)2 at the indicated concentrations. FIG. 40C depicts flow cytometry analysis of calcium flux of splenocyte cells treated or not with LTV-1 (0.75 mg) twice daily for 7 days and stimulated with anti-IgM F(ab′)2 (25 μg/mL). FIG. 40D depicts flow cytometry analysis of calcium flux of splenocyte expressing PTPN22 shRNA and stimulated with anti-IgM F(ab′)2 (25 μg/mL).
However, downstream ERK phosphorylation was not affected by PTPN22 inhibition (FIG. 40A). Since PTPN22 inhibition enhanced TCR signaling in Jurkat cell line, it was investigated if PTPN22 blockade may also increase BCR signaling and calcium flux induced by BCR triggering was measured in RAMOS cells in the presence or not of LTV-1. Calcium flux was increased by PTPN22 inhibition, especially at lower concentration of BCR triggering agent (FIG. 40B). […]

mature naive B cells = experiment: Peripheral B cell tolerance checkpoint in NSG+thymus mouse carrying the 1858T PTPN22 allele; assay type: in vivo, NSG mouse engrafted with human fetal HSCs and thymic tissue; conditions: LTV-1 0.75 mg twice daily for a month
Description: FIG. 41A depicts a schematic diagram depicting the LTV-1 PTPN22 inhibitor treatment strategy. A NSG+thymus mouse generated with CD34^+ HSCs and thymic graft carrying the 1858T PTPN22 allele was injected twice daily with 0.75 mg of PTPN22 inhibitor for four weeks. FIG. 41B depicts the frequencies of HEp-2 reactive mature naive B cells from NSG+thymus mice treated or not with the PTPN22 inhibitor were determined. […] For each B cell fraction, the frequency of reactive (filled area) and non-reactive (open area) clones is summarized in pie charts with the total number of clones tested indicated in the center. In summarized reactivity panels on the right, each symbol represents either a subject or a humanized mouse. Averages are shown with a bar. Statistically significant differences are indicated ****P≤0.0001, ***P≤0.001. FIG. 41C depicts the frequencies of polyreactive mature naive B cells from NSG+thymus mice treated or not with the PTPN22 inhibitor were determined. […] For each B cell fraction, the frequency of reactive (filled area) and non-reactive (open area) clones is summarized in pie charts with the total number of clones tested indicated in the center. In summarized reactivity panels on the right, each symbol represents either a subject or a humanized mouse. Averages are shown with a bar. Statistically significant differences are indicated ****P≤0.0001, ***P≤0.001. […]

PTPN22 = PTPN22 protein expression in GFP+ shRNA+ developing B cells from spleen of NSG mice; assay type: in vivo, human; conditions: GFP+ vs GFP- hCD19+ cells from spleen of NSG mice
Description: FIG. 9A depicts a schematic of the experimental design. CD34+ HSCs carrying PTPN22 T allele(s) were transduced with lentiviruses allowing the expression of PTPN22 shRNA before injection in the liver of 3 day-old NSG mice. FIG. 9B depicts representative flow cytometry analysis of CD19+ cells isolated from the spleen of NSG mouse engrafted with PTPN22 C/T HSCs transduced with a GFP-tagged lentivirus expressing PTPN22 specific shRNA. CD19+ B cells were stained with anti-hCD19, anti-IgM and anti-hCD10 antibodies. The frequencies of GFP− and GFP+ shRNA+ new emigrant B cells are shown. […] The frequencies of polyreactive new emigrant B cells from sorted GFP+ fractions expressing PTPN22 shRNA were determined and compared to those of GFP− new emigrant B cells. […] The frequencies of HEp-2 reactive new emigrant B cells from sorted GFP+ fractions expressing PTPN22 shRNA were determined and compared to those of GFP− new emigrant B cells. […]
Total cell lysates were separated by SDS page, transferred to PVDF membranes, probed with mouse anti-PTPN22 (Invitrogen) and detected by chemiluminescence (Amersham ECL Prime Western Blotting detection Reagent) using a GBox documentation system (Syngene). For quantification, blots were stripped with stripping buffer (Pierce) and reprobed with a mouse anti-β-Actin antibody (Sigma-Aldrich).

Row | Molecule | phosphorylation of LYN at position Y396 (LYN) | impaired peripheral B cell tolerance checkpoint (autoreactive mature naive B cells) (mature naive B cells) | decrease of PTPN22 expression in developing B cells (PTPN22)
1 | Cc1ccccc1N1C(=O)/C(=C/c2ccc(OCc3cccc(C(=O)O)c3)cc2)C(=O)NC1=S [LTV-1] | decreases | effectively restored | –
2 | shRNA #1: shRNA targeting human PTPN22, 5′-CTAGTGCTCTTGGTGTATATT-3′, delivered by GFP-tagged lentivirus | – | – | more than 90%
